US11141452B2, “Bifunctional compounds for relief of pain comprising an opioid receptor agonist moiety and a NK1 receptor antagonist moiety and methods for treating pain” (THE ARIZONA BOARD OF REGENTS ON BEHALF OF THE UNIVERSITY OF …, priority 2014, dated 2021)
Where “and” joins values, the source holds several entries; their conditions need not be identical. Identical values can stand only once. Like-named read-outs stand apart in the source and are kept apart here. Non-standard residues stand in square brackets, D forms with d. Residues, ends and D or L forms follow the SMILES beside them. *: point of attachment. NH(3,5-(CF3)2-benzyl) = FC(F)(F)c1cc(CN*)cc(C(F)(F)F)c1; NMePhe(4-F) = CN[C@@H](Cc1ccc(F)cc1)C(=O)O; Phe(4-F) = N[C@@H](Cc1ccc(F)cc1)C(=O)O; Dmt = Cc1cc(O)cc(C)c1C[C@H](N)C(=O)O; NMeF = CN[C@@H](Cc1ccccc1)C(=O)O

Columns and labels:
[1] = target: MOR; experiment: Radioligand binding assay at μ opioid receptor; details: for Log[IC50±] (μ): log IC50 ± error; for Ki^μ/Ki^δ: ratio of binding affinities MOR/DOR
Experimental: (§1) Binding affinities of these ligands were measured on radioligand binding assays. […] ([43]).

[2] = target: T1, hNK1 (Homo sapiens, UniProt P25103); experiment: hNK1/CHO cell membrane radioligand binding assay ([3H]SP); details: for Ki: Ki^hNK1 (nM), hNK1/CHO membranes, [3H]SP; for Ki^hNK1/Ki^rNK1: ratio human/rat NK1
T1 construct: expressed in transfected cells; host or cells: CHO

[3] = target: rNK1 (Rattus norvegicus, UniProt P14600); experiment: Radioligand binding assay at rat NK1 receptor; details: Ki^rNK1 (nM)
Experimental: as §1

[4] = tested on: MOR; experiment: Guinea pig isolated ileum (GPI) functional assay; format: cell-based
[5] = target: T2, DOR (Mus musculus, UniProt P32300); experiment: Mouse isolated vas deferens (MVD) functional assay; format: cell-based
T2 construct: Male ICR mice under CO2 anesthesia were sacrificed by cervical dislocation and the vasa differentia removed; from tissue; host or cells: mouse vas deferens (ICR mice)

[6] = target: T3, NK1R (Cavia porcellus, UniProt P30547); experiment: GPI/LMMP functional assay at NK1R (agonist and antagonist testing); format: cell-based, guinea pig; details: for GPI/LMMP (NK1R) Agonist: agonist activity at the concentration in the cell
T3 construct: The longitudinal muscle with myenteric plexus (LMMP) was carefully separated from the circular muscle; from tissue; host or cells: guinea pig ileum longitudinal muscle with myenteric plexus

[7] = tested on: mice (acute thermal pain, tail flick); experiment: Tail flick latency, 52° C. water bath, after intrathecal injection; format: in vivo, mouse
Experimental: Tail flick latencies were re-assessed at up to 8 time points after administration. […] Mice with baseline TFLs<3 s or >9 s were excluded from the study.
For both studies, maximal percent efficacy was calculated and expressed as: % Antinociception=100*(test latency after drug treatment−baseline latency)/(cutoff−baseline latency) Statistics: Between group data were analyzed by non-parametric two-way analysis of variance (ANOVA; post hoc. Neuman-Kuels) in FlashCalc (Dr. Michael H. Ossipov, University of Arizona, Tucson, Ariz., USA). Within group data were analyzed by non-parametric one-way analysis of variance (ANOVA; post hoc: Bonferroni) in FlashCalc (Dr. Michael H. Ossipov, University of Arizona, Tucson, Ariz., USA). Differences were considered to be significant if P≤0.05.

[8] = in vitro; details: rat, plasma
[9] = target: DOR (Homo sapiens, UniProt P41143); experiment: Radioligand binding assay at δ opioid receptor; details: for Ki: Ki^δ (nM)
Experimental: as §1

[10] = tested on: rats (acute thermal pain, paw withdrawal reflex)
[11] = agonist activity, electrically stimulated tissue, read-out: GPI (MOR) IC50
[12] = MVD (DOR) IC50 (nM), agonist activity, electrically stimulated tissue
[13] = antagonist activity, read-out: GPI/LMMP (NK1R) Ke (nM) ± S.E.M.
[14] = GPI/LMMP (NK1R) Ke (nM) ± S.E.M., antagonist activity
[15] = head of Table IX, read-out: GPI (MOR) ID50

DOR (Homo sapiens, UniProt P41143), sequence (P41143 whole entry): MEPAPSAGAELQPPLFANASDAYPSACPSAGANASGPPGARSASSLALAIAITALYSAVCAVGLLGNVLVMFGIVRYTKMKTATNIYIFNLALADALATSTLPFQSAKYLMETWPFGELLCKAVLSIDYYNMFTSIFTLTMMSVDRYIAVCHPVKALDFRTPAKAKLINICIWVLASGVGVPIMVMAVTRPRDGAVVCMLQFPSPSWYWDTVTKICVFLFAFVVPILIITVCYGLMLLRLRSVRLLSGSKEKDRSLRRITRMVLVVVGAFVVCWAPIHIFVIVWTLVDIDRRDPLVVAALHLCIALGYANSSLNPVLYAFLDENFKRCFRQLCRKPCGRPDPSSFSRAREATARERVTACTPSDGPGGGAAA
rNK1, sequence (P14600 whole entry): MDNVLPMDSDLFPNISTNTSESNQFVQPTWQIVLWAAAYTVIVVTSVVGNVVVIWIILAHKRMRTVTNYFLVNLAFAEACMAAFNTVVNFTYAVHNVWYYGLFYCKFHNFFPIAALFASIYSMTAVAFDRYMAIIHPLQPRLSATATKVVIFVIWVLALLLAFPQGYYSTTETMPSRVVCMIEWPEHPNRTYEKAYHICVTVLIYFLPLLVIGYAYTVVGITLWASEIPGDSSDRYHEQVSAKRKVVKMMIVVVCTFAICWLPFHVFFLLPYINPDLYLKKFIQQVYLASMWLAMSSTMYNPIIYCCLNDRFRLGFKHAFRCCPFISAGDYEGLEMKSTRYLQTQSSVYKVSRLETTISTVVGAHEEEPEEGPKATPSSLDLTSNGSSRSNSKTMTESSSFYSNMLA
T1 sequence (P25103 whole entry): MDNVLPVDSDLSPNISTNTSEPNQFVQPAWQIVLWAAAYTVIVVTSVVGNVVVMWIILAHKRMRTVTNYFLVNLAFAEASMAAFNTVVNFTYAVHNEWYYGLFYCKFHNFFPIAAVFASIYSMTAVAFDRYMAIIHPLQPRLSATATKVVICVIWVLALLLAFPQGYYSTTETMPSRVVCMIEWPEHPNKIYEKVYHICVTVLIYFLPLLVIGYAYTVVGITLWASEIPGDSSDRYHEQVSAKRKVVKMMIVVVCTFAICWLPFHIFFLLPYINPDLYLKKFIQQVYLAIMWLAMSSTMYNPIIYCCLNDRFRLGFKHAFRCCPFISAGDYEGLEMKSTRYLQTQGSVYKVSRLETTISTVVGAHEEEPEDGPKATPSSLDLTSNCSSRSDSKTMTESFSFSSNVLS
T3 sequence (P30547 whole entry): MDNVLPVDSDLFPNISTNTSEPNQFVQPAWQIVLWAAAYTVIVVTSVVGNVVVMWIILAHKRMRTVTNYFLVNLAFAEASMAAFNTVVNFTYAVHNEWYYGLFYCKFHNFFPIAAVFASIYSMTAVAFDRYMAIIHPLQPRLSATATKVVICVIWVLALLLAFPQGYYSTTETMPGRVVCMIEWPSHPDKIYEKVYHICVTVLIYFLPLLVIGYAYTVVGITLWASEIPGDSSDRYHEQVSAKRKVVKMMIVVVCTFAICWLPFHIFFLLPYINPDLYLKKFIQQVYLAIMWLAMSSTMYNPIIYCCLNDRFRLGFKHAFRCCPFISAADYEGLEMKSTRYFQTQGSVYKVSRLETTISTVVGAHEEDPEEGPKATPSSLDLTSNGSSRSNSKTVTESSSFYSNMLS
T2 sequence (P32300 whole entry): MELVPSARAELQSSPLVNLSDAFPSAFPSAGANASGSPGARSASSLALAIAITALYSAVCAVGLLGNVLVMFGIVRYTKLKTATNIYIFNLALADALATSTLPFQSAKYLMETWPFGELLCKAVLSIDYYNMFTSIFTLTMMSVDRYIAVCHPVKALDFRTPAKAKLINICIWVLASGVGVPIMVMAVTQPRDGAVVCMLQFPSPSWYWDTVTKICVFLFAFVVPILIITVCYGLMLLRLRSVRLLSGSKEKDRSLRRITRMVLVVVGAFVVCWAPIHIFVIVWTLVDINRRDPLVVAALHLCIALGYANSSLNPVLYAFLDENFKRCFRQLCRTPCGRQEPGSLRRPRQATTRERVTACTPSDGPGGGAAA

| Compound | Ki [1] | Log[IC50±] (μ) [1] | Ki^μ/Ki^δ [1] | Ki [2] | Ki^hNK1/Ki^rNK1 [2] | Ki [3] | IC50 [4, 11] | higher agonist activity at DOR compared to MOR (functional assays) [5] | IC50 [5, 12] | GPI/LMMP (NK1R) Agonist [6] | half-life [8] | IC50 [9] | GPI/MVD IC50 ratio [4] | Ki [9] | Kb [6, 14] | also measured |
| --- | --- | --- | --- | --- | --- | --- | --- | --- | --- | --- | --- | --- | --- | --- | --- | --- |
| Cc1cc(O)cc(C)c1C[C@H](N)C(=O)N[C@H](C)C(=O)NCC(=O)N[C@@H](Cc1ccc(F)cc1)C(=O)N1CCC[C@H]1C(=O)N[C@@H](CC(C)C)C(=O)N[C@@H](Cc1c[nH]c2ccccc12)C(=O)NCc1cc(C(F)(F)F)cc(C(F)(F)F)c1 [AKG127, H-Dmt-D-Ala-Gly-Phe(4-F)-Pro-Leu-Trp-NH-Bn(3′,5′-(CF3)2)] | 1 nM | −8.72 ± 0.08 | 1/1 | 1 nM | 1/33 | 29.4 ± 1.5 nM | 42 nM and 41.6 nM | 21 times | 1.9 nM and 1.96 nM | None at 30 nM | > 24 h |  |  |  |  | Kb [6, 13]: 5.3 nM; maximal level of antinociception (% antinociception) ([7]; 0.1 μg i.t.): approximately 70%; tail flick latencies (TFLs) ([7]; 0.1 μg in 5 μl, i.t., 60 min after injection): significantly higher than vehicle-treated mice and baseline values |
| CSCC[C@H](NC(=O)[C@H](Cc1ccccc1)NC(=O)CNC(=O)[C@@H](C)NC(=O)[C@@H](N)Cc1c(C)cc(O)cc1C)C(=O)N1CCC[C@H]1C(=O)N[C@@H](CC(C)C)C(=O)N[C@@H](Cc1c[nH]c2ccccc12)C(=O)NCc1cc(C(F)(F)F)cc(C(F)(F)F)c1 [TY032, H-Dmt-D-Ala-Gly-Phe-Met-Pro-Leu-Trp-NH-Bn(3′,5′-(CF3)2), reference compound] |  |  |  |  |  |  |  |  |  |  | > 6 h |  |  |  |  |  |
| Cc1cc(O)cc(C)c1C[C@H](N)C(=O)N[C@H](C)C(=O)NCC(=O)N(C)[C@@H](Cc1ccccc1)C(=O)N1CCC[C@H]1C(=O)N[C@@H](CC(C)C)C(=O)N[C@@H](Cc1c[nH]c2ccccc12)C(=O)NCc1cc(C(F)(F)F)cc(C(F)(F)F)c1 [AKG115, H-Dmt-D-Ala-Gly-NMePhe-Pro-Leu-Trp-NH-Bn(3′,5′-(CF3)2)] | 1 nM | −8.78 ± 0.05 |  |  |  |  | 21 nM and 20.6 nM |  | 30.7 ± 7.5 nM |  | > 24 h | 12 nM |  |  |  | Kb [6, 13]: 9.7 nM; maximal level of antinociception ([10]; 0.1 μg i.t.): minimal; motor skills ([10]; 10 μg in 5 μl): motor skills were impaired; Paw withdrawal latencies (PWLs) ([10]; spinal 0.1 μg in 5 μL, 60 min after the injection): not significantly higher than vehicle-treated rats and baseline values |
| CC(C)C[C@H](NC(=O)[C@@H]1CCCN1C(=O)c1ccc(CNC(=O)[C@H](Cc2ccccc2)N(C)C(=O)CNC(=O)[C@@H](C)NC(=O)[C@@H](N)Cc2ccc(O)cc2)cc1)C(=O)N[C@@H](Cc1c[nH]c2ccccc12)C(=O)NCc1cc(C(F)(F)F)cc(C(F)(F)F)c1 [AKG125, H-Tyr-D-Ala-Gly-NMePhe-4-Amb-Pro-Leu-Trp-NH-Bn(3′,5′-(CF3)2)] | 5 nM | −7.92 ± 0.11 |  | 2.3 nM | 1/13 | 30 nM | 470 nM and 471 nM | 10 times |  | None at 100 nM |  | 263 nM | 10/1 |  |  | binding selectivity for MOR over DOR [1]: 23 times; IC50 [5]: 46.3 ± 13.4 nM; Kb [6]: 8.36 ± 4.12 nM |
| CC(C)C[C@H](NC(=O)[C@@H]1CCCN1C(=O)CNC(=O)[C@H](Cc1ccc(F)cc1)NC(=O)CNC(=O)[C@@H](C)NC(=O)[C@@H](N)Cc1ccc(O)cc1)C(=O)N[C@@H](Cc1c[nH]c2ccccc12)C(=O)NCc1cc(C(F)(F)F)cc(C(F)(F)F)c1 [AKG130, H-Tyr-D-Ala-Gly-Phe(4-F)-Gly-Pro-Leu-Trp-NH-Bn(3′,5′-(CF3)2)] (H-Y[dA]G[Phe(4-F)]GPLW-{NH(3,5-(CF3)2-benzyl)}) | 9 nM | −7.69 ± 0.06 | 2/1 | 1.54 nM | 1/47 | 72 nM | 340 nM and 339 nM |  | 11.9 ± 1.56 nM | None at 300 nM |  | 11 nM |  | 5 nM | 11 nM and 10.6 nM |  |
| CC(C)C[C@H](NC(=O)[C@@H]1CCCN1C(=O)c1ccc(NC(=O)[C@H](Cc2ccccc2)N(C)C(=O)CNC(=O)[C@@H](C)NC(=O)[C@@H](N)Cc2ccc(O)cc2)cc1)C(=O)N[C@@H](Cc1c[nH]c2ccccc12)C(=O)NCc1cc(C(F)(F)F)cc(C(F)(F)F)c1 [AKG176, H-Tyr-D-Ala-Gly-NMePhe-4-Abz-Pro-Leu-Trp-NH-Bn(3′,5′-(CF3)2)] | 1 nM | −8.69 ± 0.24 | 1/82 | 5.3 nM | 1/19 | 74 nM | 40.8 ± 8 nM |  |  | None at 300 nM |  | 182 nM | 2/1 | 70 nM |  | IC50 [5]: 22.8 ± 5.53 nM; Kb [6]: 117 ± 31.4 nM |
| Cc1cc(O)cc(C)c1C[C@H](N)C(=O)N[C@H](C)C(=O)NCC(=O)N(C)[C@@H](Cc1ccccc1)C(=O)N[C@@H](CO)C(=O)NCC(=O)N1CCC[C@H]1C(=O)N[C@@H](CC(C)C)C(=O)N[C@@H](Cc1c[nH]c2ccccc12)C(=O)NCc1cc(C(F)(F)F)cc(C(F)(F)F)c1 [AKG-CRA-137] (H-[Dmt][dA]G[NMeF]SGPLW-{NH(3,5-(CF3)2-benzyl)}) | 0.7 nM | −8.82 ± 0.26 |  | 4.9 nM and 4.76 nM | 1/18 | 87.5 nM | 7.9 nM |  | 16.4 ± 5.17 nM | None at 100 nM |  | 2.69 nM | 1/2 | 1 nM | 26.3 ± 5.7 nM | IC50 [4, 15]: 7.87 ± 2.57 nM |
| CC(C)C[C@H](NC(=O)[C@@H]1CCCN1C(=O)[C@H](Cc1ccc(F)cc1)NC(=O)CNC(=O)[C@@H](C)NC(=O)[C@@H](N)Cc1ccc(O)cc1)C(=O)N[C@@H](Cc1c[nH]c2ccccc12)C(=O)NCc1cc(C(F)(F)F)cc(C(F)(F)F)c1 [AKG190, H-Tyr-D-Ala-Gly-Phe(4-F)-Pro-Leu-Trp-NH-Bn(3′,5′-(CF3)2)] | 4 nM | −8.08 ± 0.10 | 20/1 | 5.61 ± 0.65 nM | 1/6 |  | 65 nM and 64.8 nM | 5 times | 12.1 ± 4 nM | None at 30 nM | < 2 h |  |  | 0.2 nM |  | binding selectivity for DOR over MOR [9]: 20 times |
| CC(C)C[C@H](NC(=O)[C@@H]1CCCN1C(=O)CNC(=O)[C@H](Cc1ccccc1)N(C)C(=O)CNC(=O)[C@@H](C)NC(=O)[C@@H](N)Cc1ccc(O)cc1)C(=O)N[C@@H](Cc1c[nH]c2ccccc12)C(=O)NCc1cc(C(F)(F)F)cc(C(F)(F)F)c1 [AKG113, H-Tyr-D-Ala-Gly-NMePhe-Gly-Pro-Leu-Trp-NH-Bn(3′,5′-(CF3)2)] (H-Y[dA]G[NMeF]GPLW-{NH(3,5-(CF3)2-benzyl)}) | 3 nM | −8.23 ± 0.03 | 1/15 |  | 1/4 | 60 nM | 79.2 nM |  | 38.7 ± 9.69 nM | None at 100 nM |  | 100 nM | 2/1 | 46 nM | 14.9 ± 2.9 nM | binding selectivity for MOR over DOR [1]: 15 times |
| CC(C)C[C@H](NC(=O)[C@@H]1CCCN1C(=O)[C@H](CO)NC(=O)[C@H](Cc1ccc(F)cc1)N(C)C(=O)CNC(=O)[C@@H](C)NC(=O)[C@@H](N)Cc1ccc(O)cc1)C(=O)N[C@@H](Cc1c[nH]c2ccccc12)C(=O)NCc1cc(C(F)(F)F)cc(C(F)(F)F)c1 [AKG134] (H-Y[dA]G[NMePhe(4-F)]SPLW-{NH(3,5-(CF3)2-benzyl)}) | 2 nM | −8.27 ± 0.11 | 1/4 | 7.95 ± 0.87 nM | 1/6 | 50.2 ± 16.9 nM |  |  | 8.94 ± 0.795 nM | None at 30 nM |  | 14.5 nM | 21/1 | 7 nM | 1.86 ± 0.43 nM | IC50 [4, 15]: 184 ± 30.9 nM |
